In PMC5501787, “Heliosterpenoids A and B, two Novel Jatrophane-Derived Diterpenoids with a 5/6/4/6 Ring System from Euphorbia helioscopia” (Scientific Reports, 2017):

Biological target: P-glycoprotein (ABCB1) (Homo sapiens, UniProt P08183)
Test: inhibition of P-gp-mediated adriamycin efflux in MCF-7/ADR cells
Type: cell-based

Chain of P-glycoprotein (ABCB1) (P08183 whole entry): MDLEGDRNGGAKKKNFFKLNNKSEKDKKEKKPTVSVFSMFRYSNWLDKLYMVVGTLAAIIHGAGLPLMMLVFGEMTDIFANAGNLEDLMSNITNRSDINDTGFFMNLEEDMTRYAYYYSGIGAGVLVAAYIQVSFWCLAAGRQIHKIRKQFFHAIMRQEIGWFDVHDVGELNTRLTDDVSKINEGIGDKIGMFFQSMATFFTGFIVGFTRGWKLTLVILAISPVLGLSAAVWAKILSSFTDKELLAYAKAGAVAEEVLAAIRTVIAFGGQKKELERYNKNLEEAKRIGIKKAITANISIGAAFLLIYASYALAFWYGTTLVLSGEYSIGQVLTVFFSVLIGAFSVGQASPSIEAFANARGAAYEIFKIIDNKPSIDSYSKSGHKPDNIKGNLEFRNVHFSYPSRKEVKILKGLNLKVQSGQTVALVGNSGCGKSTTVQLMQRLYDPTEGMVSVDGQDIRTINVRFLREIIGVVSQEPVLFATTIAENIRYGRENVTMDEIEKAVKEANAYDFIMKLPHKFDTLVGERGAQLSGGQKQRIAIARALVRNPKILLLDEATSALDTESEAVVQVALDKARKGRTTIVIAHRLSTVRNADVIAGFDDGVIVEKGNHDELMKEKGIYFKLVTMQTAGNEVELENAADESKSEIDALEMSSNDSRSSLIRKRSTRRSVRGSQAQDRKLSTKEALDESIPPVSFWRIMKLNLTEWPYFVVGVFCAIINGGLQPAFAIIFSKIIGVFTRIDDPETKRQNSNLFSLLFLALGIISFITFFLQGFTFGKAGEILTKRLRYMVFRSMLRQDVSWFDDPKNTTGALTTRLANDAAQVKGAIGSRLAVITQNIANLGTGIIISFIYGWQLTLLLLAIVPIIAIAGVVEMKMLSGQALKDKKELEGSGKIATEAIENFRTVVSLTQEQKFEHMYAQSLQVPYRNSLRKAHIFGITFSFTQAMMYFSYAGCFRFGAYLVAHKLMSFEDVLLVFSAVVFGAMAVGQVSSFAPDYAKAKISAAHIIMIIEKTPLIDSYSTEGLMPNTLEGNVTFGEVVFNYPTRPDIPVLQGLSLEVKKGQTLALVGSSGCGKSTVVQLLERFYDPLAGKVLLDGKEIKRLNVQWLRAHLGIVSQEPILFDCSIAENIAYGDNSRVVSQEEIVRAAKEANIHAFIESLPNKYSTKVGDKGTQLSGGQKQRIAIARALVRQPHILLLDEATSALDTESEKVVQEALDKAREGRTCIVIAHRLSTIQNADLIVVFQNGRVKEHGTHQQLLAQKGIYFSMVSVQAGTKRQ

| SMILES | IC50 [µM] |
| --- | --- |
| CC(=O)O[C@@H]1[C@@H](C)[C@H]2[C@@H]([C@H]3[C@@H](OC(=O)c4ccccc4)[C@H](C)C[C@@]31OC(C)=O)[C@]1(C)C=CC(=O)C(C)(C)[C@H]21 [compound 1, Heliosterpenoid A] | 1.28 |
| CC(=O)O[C@H]1[C@@H](C)[C@H]2[C@@H]([C@H]3[C@@H](OC(=O)c4ccccc4)[C@@H](C)C[C@@]31O)[C@]1(C)C(=O)C=CC(C)(C)[C@H]21 [compound 2, Heliosterpenoid B] | 1.02 |
